pIC50: −log10 of the molar value. Entries after “also recorded” stand apart in the source; their conditions may differ.
Tests used:
[1] = subacute toxicity test, daily oral dose for 28 days; type: in vivo, rat; conditions: both sexes, Wistar, rat, in vivo, rats, daily oral doses for 28 days
Protocol: (§1) Plumbagin was dissolved with 20 % Tween-80 to obtain the desired concentrations. Wistar rats were fasting 2 h before administration of a single oral dose of the plumbagin. Animals were divided into eight groups of six (3 males and 3 females for each group). For the acute toxicity test, rats in each group were fed with plumbagin at a single oral dose of 500, 250, or 150 mg/kg body weight (1 mL); control group received a single oral dose of 20 % Tween-80 (1 mL). For the subacute toxicity test, rats in each group were fed with plumbagin at a daily dose of 100, 50, or 25 mg/kg body weight (1 mL) for 28 days; control group received a daily oral dose of 20 % Tween-80 for 28 days (1 mL).
(§2) General behavioral changes of each rat was observed continuously for 1 h after each dose, intermittently every 4 h, and thereafter over a period of 24 h. […] At the end of the observation period, all animals were sacrificed under ether anesthesia (isoflurane) and vital organs (liver, lung, kidney, heart, and spleen) were removed from all animals for gross and histopathological examination. Blood sample was collected from each rat through cardiac puncture for analysis of plasma chemistry (heparin as an anticoagulant) and blood hematology (EDTA as an anticoagulant).

Wistar rats = assay: as above; type: in vivo, rat
Protocol: as §1, §2

CYP3A11 = conditions: mouse, in vivo, po
Protocol: Mice were divided into four groups (3 male mice each). Mice in the treated groups were fed with plumbagin at a daily oral dose of 25, 12.5, or 6.25 mg/kg body weight (1 mL) for 28 days. The control group received a daily oral dose (1 mL) of 20 % Tween-80 for 28 days. At the end of the experiment period, all animals were sacrificed under ether anesthesia and livers were removed for investigation of the modulatory effect of plumbagin on hepatic CYP1A2 and CYP3A11.
The liver samples were rinsed with ice-cold, 0.9 %NaCl, homogenized in 50 mM sodium phosphate buffer (pH 7.4) containing 0.1 mM EDTA, and centrifuged at 9000 × g for 20 min. […] Protein concentrations were determined by Bradford protein assay and the suspended microsomes were aliquoted and stored at −80 °C until use. […]
The incubation mixture of 500 μL containing the selective substrate (20 μM phenacetin and 40 μm nifedipine for CYP1A2 and CYP3A11, respectively), mice liver microsomes (in 100 mM phosphate buffer pH 7.4) was pre-incubated at 37 °C for 5 min in a shaking water bath. […] Concentrations of paracetamol (metabolite of CYP1A2) and oxidized nifedipine (metabolite of CYP3A11) in the incubation mixtures were determined using HPLC with UV detection. […]

[2] = tested on: 3D7 chloroquine-sensitive P. falciparum; conditions: 3D7 clone; read-out: median IC50; cited from earlier work
[3] = tested on: human colon epithelial cell monolayer Caco-2; conditions: cited from earlier work
mice = conditions: cited from earlier work
[4] = 25 mg/kg body weight daily for 28 days
[5] = 25 mg/kg daily oral for 28 days, median (interquartile range)

Question: For `CC1=CC(=O)c2c(O)cccc2C1=O` [plumbagin, 5-hydroxy-2-methyl-1,4-naphthoquinone], which LD50 at 28 days ([1]; read-out: 50 % lethal dose (LD50), subacute toxicity) is on record?
Answer: 50 to 100 mg/kg

Question: And the MTD at 28 days ([1]; read-out: maximum tolerated dose, subacute toxicity)?
Answer: 25 mg/kg

Question: What about the “behavior, signs of toxicity, water and food consumption, body weight” value (Wistar rats; [4]) of the same compound?
Answer: no abnormality in behavior, sign of toxicity, nor changes in water and food consumption, as well as body weights

Question: And the “histopathological examination (liver, kidney, heart, spleen, lung)” value (Wistar rats; [4])?
Answer: no significant change in size and morphology

Question: And the survival (Wistar rats; [4])?
Answer: all rats survived

Question: And the “changes in blood chemistry and hematology” value (Wistar rats; 25 mg/kg body weight daily for 28 days vs control)?
Answer: no significant changes in blood chemistry and hematology; also recorded: no significant change in hematological and blood biochemistry profiles

Question: And the Blood morphology (Wistar rats; 25 mg/kg daily oral for 28 days)?
Answer: Normal

Question: What about the ALT (Wistar rats; [5]) of the same compound?
Answer: 30 (11) U/L

Question: And the AST (Wistar rats; [5])?
Answer: 101 (15) U/L

Question: What about the BUN (Wistar rats; [5]) of the same compound?
Answer: 22.0 (7.5) mg/dL

Question: What about the Cholesterol (Wistar rats; [5]) of the same compound?
Answer: 73 (6) mg/dL

Question: And the Creatinine (Wistar rats; [5])?
Answer: 0.50 (0.00) mg/dL

Question: And the Eosinophils (Wistar rats; [5])?
Answer: 0.00 (1.00) ×10^3/μL

Question: And the Glucose (Wistar rats; [5])?
Answer: 230 mg/dL

Question: And the Hematocrit (Wistar rats; [5])?
Answer: 47.8 (2.6) %

Question: And the Hemoglobin (Wistar rats; [5])?
Answer: 14.4 (1.2) g/dL

Question: And the Lymphocytes (Wistar rats; [5])?
Answer: 7.59 (0.31) ×10^3/μL

Question: What about the Monocytes (Wistar rats; [5]) of the same compound?
Answer: 0.00 (1.00) ×10^3/μL

Question: And the Neutrophils (Wistar rats; [5])?
Answer: 2.20 (0.63) ×10^3/μL

Question: What about the Platelets count (Wistar rats; [5]) of the same compound?
Answer: 885.50 (73.75) ×10^3/μL

Question: What about the RBC (Wistar rats; [5]) of the same compound?
Answer: 8.16 (0.72) ×10^6/μL

Question: And the Triglyceride (Wistar rats; [5])?
Answer: 110 (9) mg/dL

Question: And the WBC (Wistar rats; [5])?
Answer: 9.40 (0.65) ×10^3/μL

Question: And the Glucose (Wistar rats; 25 mg/kg daily oral for 28 days, median (interquartile range), listed as Plumbagin)?
Answer: 230 (59) mg/dL

Question: And the rats died (Wistar rats; 50 mg/kg body weight daily)?
Answer: two rats

Question: What about the “rats with toxic signs and symptoms” value (Wistar rats; 50 mg/kg body weight daily) of the same compound?
Answer: 2/6

Question: And the time to death (Wistar rats; 50 mg/kg body weight daily)?
Answer: 12 to 16 days

Question: And the rats died (Wistar rats; 100 mg/kg body weight daily)?
Answer: All rats

Question: And the “rats with toxic signs and symptoms” value (Wistar rats; 100 mg/kg body weight daily)?
Answer: 6/6

Question: What about the time to death (Wistar rats; 100 mg/kg body weight daily) of the same compound?
Answer: 6 to 10 days

Question: What about the gender-specific toxicity (Wistar rats; all dose levels) of the same compound?
Answer: No gender-specific toxicity was observed

Question: What about the “trend of CYP3A11 mRNA expression and enzyme activity” value (CYP3A11) of the same compound?
Answer: a trend of reduction

Question: What about the pIC50 [2] of the same compound?
Answer: 6.24

Question: What about the “influence of efflux protein on permeability” value ([3]; Caco-2) of the same compound?
Answer: no influence of efflux protein

Question: What about the permeability ([3]; Caco-2) of the same compound?
Answer: moderate

Question: And the transport mechanism [3]?
Answer: passive transport

Question: And the “maximal tolerated dose, subacute toxicity testing” value (mice; mice, for 14 days, ref our previous study)?
Answer: 25 mg/kg body weight

Question: What about the “types of toxicity reported” value (mice; mice) of the same compound?
Answer: diarrhea, skin rashes, leukocytosis, increased serum phosphatase levels

Question: What about the “maximal tolerated dose, acute toxicity testing” value (mice; mice, ref our previous study) of the same compound?
Answer: 100 mg/kg body weight

Question: And the hepatotoxicity (mice; mouse, in vivo)?
Answer: marked increased plasma ALT and AST levels

— article PMC5108082, “Pharmacokinetics, toxicity, and cytochrome P450 modulatory activity of plumbagin” (BMC Pharmacology & Toxicology, 2016)
